Measured values: ChEMBL document CHEMBL3885861, “Open TG-GATES”

Species on record: Rattus norvegicus
Experiment: Open TG-GATES - Regimen: Daily Repeat
Type: toxicity, organism-based, Sprague-Dawley
Design: regimen Daily Repeat, gender Male, age 6 weeks
Settings: in vivo, iv, route intravenous injection; for APTT / Bas / Eos / Fbg / Hb / Ht / Lym / MCH / MCHC / MCV / Mono / Neu / PT / Plat / RBC / Ret / WBC: tissue Blood; for KIDNEY_L / KIDNEY_R / KIDNEY_TOTAL: tissue Kidney; for LIVER: tissue Liver; for ALP / ALT / AST / BUN / CRE / Ca / Cl / DBIL / GLC / IP / K / LDH / Na / PL / RALB / TBIL / TC / TG / TP / gamma-GTP: tissue Plasma
[1] = 1000 mg/kg, 72 h, dose level Middle, time 3 day
[2] = 1000 mg/kg, […], dose level Middle, time 7 day
[3] = 1000 mg/kg, […], dose level Middle, time 14 day
[4] = 1000 mg/kg, […], dose level Middle, time 28 day
[5] = 2000 mg/kg, 72 h, dose level High, time 3 day
[6] = 2000 mg/kg, […], dose level High, time 7 day
[7] = 2000 mg/kg, […], dose level High, time 14 day
[8] = 2000 mg/kg, […], dose level High, time 28 day

CC(=O)OCC1=C(C(=O)O)N2C(=O)[C@@H](NC(=O)Cc3cccs3)[C@H]2SC1 [CEPHALOTHIN]
TERMINAL_BW [1]: 236.8 g
APTT [1]: 22.6 s
Bas [1]: 0%
Eos [1]: 1%
Fbg [1]: 308.4 mg/dL
Hb [1]: 13.4 g/dL
Ht [1]: 38.7%
Lym [1]: 87.2%
MCH [1]: 21.3 pg
MCHC [1]: 34.7%
MCV [1]: 61.6 fL
Mono [1]: 2.6%
Neu [1]: 8.2%
PT [1]: 16 s
Plat [1]: 120.2 x10_4/uL
RBC [1]: 630.2 x10_4/ul
Ret [1]: 5%
WBC [1]: 80.1 x10_2/uL
KIDNEY_L [1]: 1 g
KIDNEY_R [1]: 1 g
KIDNEY_TOTAL [1]: 2 g
LIVER [1]: 10.2 g
ALP [1]: 1638.6 IU/L
ALT [1]: 44.6 IU/L
AST [1]: 71.2 IU/L
BUN [1]: 18 mg/dL
CRE [1]: 0.2 mg/dL
Ca [1]: 10.6 mg/dL
Cl [1]: 105.2 meq/L
DBIL [1]: 0 mg/dL
GLC [1]: 160 mg/dL
IP [1]: 7.1 mg/dL
K [1]: 4.5 meq/L
LDH [1]: 147.8 IU/L
Na [1]: 141.2 meq/L
PL [1]: 141.6 mg/dL
RALB [1]: 3 g/dL
TBIL [1]: 0.008 mg/dL
TC [1]: 85.2 mg/dL
TG [1]: 65.8 mg/dL
TP [1]: 5.5 g/dL
gamma-GTP [1]: 1.4 IU/L
TERMINAL_BW [2]: 261.5 g
TERMINAL_BW [3]: 302.8 g
TERMINAL_BW [4]: 376.7 g
APTT [2]: 21.6 s
Bas [2]: 0%
Eos [2]: 1.2%
Fbg [2]: 323 mg/dL
Hb [2]: 13.2 g/dL
Ht [2]: 38%
Lym [2]: 87.2%
MCH [2]: 20.7 pg
MCHC [2]: 34.8%
MCV [2]: 59.3 fL
Mono [2]: 2.2%
Neu [2]: 9%
PT [2]: 17 s
Plat [2]: 135.9 x10_4/uL
RBC [2]: 640.6 x10_4/ul
Ret [2]: 5.5%
WBC [2]: 90.6 x10_2/uL
APTT [3]: 23.4 s
Bas [3]: 0%
Eos [3]: 0.8%
Fbg [3]: 260.8 mg/dL
Hb [3]: 13.9 g/dL
Ht [3]: 39%
Lym [3]: 89.2%
MCH [3]: 20.2 pg
MCHC [3]: 35.6%
MCV [3]: 56.6 fL
Mono [3]: 2.2%
Neu [3]: 6.8%
PT [3]: 16.2 s
Plat [3]: 123.9 x10_4/uL
RBC [3]: 689.8 x10_4/ul
Ret [3]: 5%
WBC [3]: 109.6 x10_2/uL
APTT [4]: 24.8 s
Bas [4]: 0%
Eos [4]: 1.4%
Fbg [4]: 294.4 mg/dL
Hb [4]: 14.9 g/dL
Ht [4]: 40.5%
Lym [4]: 88.2%
MCH [4]: 19.6 pg
MCHC [4]: 36.8%
MCV [4]: 53.1 fL
Mono [4]: 1.8%
Neu [4]: 7.6%
PT [4]: 16.2 s
Plat [4]: 113.8 x10_4/uL
RBC [4]: 762.8 x10_4/ul
Ret [4]: 2.8%
WBC [4]: 98 x10_2/uL
KIDNEY_L [2]: 1.1 g
KIDNEY_R [2]: 1.1 g
KIDNEY_TOTAL [2]: 2.3 g
KIDNEY_L [3]: 1.2 g
KIDNEY_R [3]: 1.3 g
KIDNEY_TOTAL [3]: 2.5 g
KIDNEY_L [4]: 1.4 g
KIDNEY_R [4]: 1.4 g
KIDNEY_TOTAL [4]: 2.8 g
LIVER [2]: 12.2 g
LIVER [3]: 12.7 g
LIVER [4]: 14.6 g
ALP [2]: 1283 IU/L
ALT [2]: 35.4 IU/L
AST [2]: 64.4 IU/L
BUN [2]: 16.2 mg/dL
CRE [2]: 0.2 mg/dL
Ca [2]: 11 mg/dL
Cl [2]: 105.4 meq/L
DBIL [2]: 0.002 mg/dL
GLC [2]: 171.8 mg/dL
IP [2]: 7.3 mg/dL
K [2]: 4.2 meq/L
LDH [2]: 148.4 IU/L
Na [2]: 141.6 meq/L
PL [2]: 134.6 mg/dL
RALB [2]: 3 g/dL
TBIL [2]: 0.02 mg/dL
TC [2]: 70.4 mg/dL
TG [2]: 94.6 mg/dL
TP [2]: 5.6 g/dL
gamma-GTP [2]: 1.8 IU/L
ALP [3]: 1231.6 IU/L
ALT [3]: 35.2 IU/L
AST [3]: 66.4 IU/L
BUN [3]: 15.6 mg/dL
CRE [3]: 0.2 mg/dL
Ca [3]: 10.5 mg/dL
Cl [3]: 106 meq/L
DBIL [3]: 0 mg/dL
GLC [3]: 170.2 mg/dL
IP [3]: 6.7 mg/dL
K [3]: 4.2 meq/L
LDH [3]: 96.2 IU/L
Na [3]: 140.6 meq/L
PL [3]: 143 mg/dL
RALB [3]: 3 g/dL
TBIL [3]: 0.01 mg/dL
TC [3]: 73.6 mg/dL
TG [3]: 109.8 mg/dL
TP [3]: 5.6 g/dL
gamma-GTP [3]: 2.4 IU/L
ALP [4]: 1075.4 IU/L
ALT [4]: 31 IU/L
AST [4]: 62 IU/L
BUN [4]: 16.6 mg/dL
CRE [4]: 0.2 mg/dL
Ca [4]: 10.4 mg/dL
Cl [4]: 106.6 meq/L
DBIL [4]: 0.004 mg/dL
GLC [4]: 175.4 mg/dL
IP [4]: 5.9 mg/dL
K [4]: 4.2 meq/L
LDH [4]: 148 IU/L
Na [4]: 142.4 meq/L
PL [4]: 135.4 mg/dL
RALB [4]: 3.1 g/dL
TBIL [4]: 0.018 mg/dL
TC [4]: 67.6 mg/dL
TG [4]: 116.4 mg/dL
TP [4]: 5.9 g/dL
gamma-GTP [4]: 1.2 IU/L
TERMINAL_BW [5]: 233 g
APTT [5]: 22.3 s
Bas [5]: 0%
Eos [5]: 1.2%
Fbg [5]: 311.4 mg/dL
Hb [5]: 13.7 g/dL
Ht [5]: 38.7%
Lym [5]: 87.2%
MCH [5]: 21.3 pg
MCHC [5]: 35.3%
MCV [5]: 60.3 fL
Mono [5]: 2.2%
Neu [5]: 9%
PT [5]: 16.2 s
Plat [5]: 128.7 x10_4/uL
RBC [5]: 642 x10_4/ul
Ret [5]: 4.9%
WBC [5]: 71.5 x10_2/uL
KIDNEY_L [5]: 1 g
KIDNEY_R [5]: 1 g
KIDNEY_TOTAL [5]: 2.1 g
LIVER [5]: 10.2 g
ALP [5]: 1558.6 IU/L
ALT [5]: 43 IU/L
AST [5]: 72.2 IU/L
BUN [5]: 17.6 mg/dL
CRE [5]: 0.2 mg/dL
Ca [5]: 10.4 mg/dL
Cl [5]: 106 meq/L
DBIL [5]: 0.004 mg/dL
GLC [5]: 173.6 mg/dL
IP [5]: 7.5 mg/dL
K [5]: 4.4 meq/L
LDH [5]: 152.4 IU/L
Na [5]: 141.6 meq/L
PL [5]: 132.8 mg/dL
RALB [5]: 3.1 g/dL
TBIL [5]: 0.03 mg/dL
TC [5]: 80.6 mg/dL
TG [5]: 40.4 mg/dL
TP [5]: 5.5 g/dL
gamma-GTP [5]: 1.8 IU/L
TERMINAL_BW [6]: 255 g
TERMINAL_BW [7]: 294.7 g
TERMINAL_BW [8]: 341.3 g
APTT [6]: 22.8 s
Bas [6]: 0%
Eos [6]: 0.8%
Fbg [6]: 347.2 mg/dL
Hb [6]: 13.4 g/dL
Ht [6]: 38.1%
Lym [6]: 83.8%
MCH [6]: 20.8 pg
MCHC [6]: 35.1%
MCV [6]: 59.4 fL
Mono [6]: 2.4%
Neu [6]: 12.4%
PT [6]: 16.7 s
Plat [6]: 132.5 x10_4/uL
RBC [6]: 642.8 x10_4/ul
Ret [6]: 6.3%
WBC [6]: 96.8 x10_2/uL
APTT [7]: 23.6 s
Bas [7]: 0%
Eos [7]: 1%
Fbg [7]: 269.2 mg/dL
Hb [7]: 14.4 g/dL
Ht [7]: 40.1%
Lym [7]: 84.6%
MCH [7]: 20.7 pg
MCHC [7]: 35.9%
MCV [7]: 57.5 fL
Mono [7]: 2%
Neu [7]: 12%
PT [7]: 16 s
Plat [7]: 117.3 x10_4/uL
RBC [7]: 695.2 x10_4/ul
Ret [7]: 5%
WBC [7]: 118.2 x10_2/uL
APTT [8]: 24.6 s
Bas [8]: 0%
Eos [8]: 1.6%
Fbg [8]: 283.8 mg/dL
Hb [8]: 15.6 g/dL
Ht [8]: 42.2%
Lym [8]: 84.8%
MCH [8]: 19.6 pg
MCHC [8]: 37%
MCV [8]: 52.9 fL
Mono [8]: 2.4%
Neu [8]: 10.8%
PT [8]: 16.1 s
Plat [8]: 100.5 x10_4/uL
RBC [8]: 797.8 x10_4/ul
Ret [8]: 3.2%
WBC [8]: 103.9 x10_2/uL
KIDNEY_L [6]: 1.1 g
KIDNEY_R [6]: 1.1 g
KIDNEY_TOTAL [6]: 2.2 g
KIDNEY_L [7]: 1.2 g
KIDNEY_R [7]: 1.2 g
KIDNEY_TOTAL [7]: 2.4 g
KIDNEY_L [8]: 1.4 g
KIDNEY_R [8]: 1.4 g
KIDNEY_TOTAL [8]: 2.7 g
LIVER [6]: 12 g
LIVER [7]: 12.9 g
LIVER [8]: 13.8 g
ALP [6]: 1549.6 IU/L
ALT [6]: 42.4 IU/L
AST [6]: 71.2 IU/L
BUN [6]: 19.6 mg/dL
CRE [6]: 0.2 mg/dL
Ca [6]: 10.8 mg/dL
Cl [6]: 107.6 meq/L
DBIL [6]: 0 mg/dL
GLC [6]: 169.2 mg/dL
IP [6]: 7 mg/dL
K [6]: 4.5 meq/L
LDH [6]: 152.8 IU/L
Na [6]: 141.6 meq/L
PL [6]: 138.6 mg/dL
RALB [6]: 3 g/dL
TBIL [6]: 0.008 mg/dL
TC [6]: 69.8 mg/dL
TG [6]: 103.2 mg/dL
TP [6]: 5.6 g/dL
gamma-GTP [6]: 2 IU/L
ALP [7]: 1210 IU/L
ALT [7]: 40.6 IU/L
AST [7]: 72 IU/L
BUN [7]: 18.6 mg/dL
CRE [7]: 0.2 mg/dL
Ca [7]: 10.6 mg/dL
Cl [7]: 106.2 meq/L
DBIL [7]: 0 mg/dL
GLC [7]: 176.8 mg/dL
IP [7]: 6.3 mg/dL
K [7]: 4.3 meq/L
LDH [7]: 142.8 IU/L
Na [7]: 141.4 meq/L
PL [7]: 142.4 mg/dL
RALB [7]: 3.1 g/dL
TBIL [7]: 0.018 mg/dL
TC [7]: 73.6 mg/dL
TG [7]: 110.2 mg/dL
TP [7]: 5.8 g/dL
gamma-GTP [7]: 2.4 IU/L
ALP [8]: 899.6 IU/L
ALT [8]: 38 IU/L
AST [8]: 69.2 IU/L
BUN [8]: 16 mg/dL
CRE [8]: 0.2 mg/dL
Ca [8]: 10.4 mg/dL
Cl [8]: 106.2 meq/L
DBIL [8]: 0.002 mg/dL
GLC [8]: 166.8 mg/dL
IP [8]: 5.6 mg/dL
K [8]: 4.1 meq/L
LDH [8]: 105.2 IU/L
Na [8]: 142.6 meq/L
PL [8]: 129.8 mg/dL
RALB [8]: 3.2 g/dL
TBIL [8]: 0.034 mg/dL
TC [8]: 62.4 mg/dL
TG [8]: 93.8 mg/dL
TP [8]: 6.1 g/dL
gamma-GTP [8]: 1.8 IU/L
